Columns and labels:
Type in all cases: in vivo
[1] = tested on: Total PTH; assay: Clinical trial in ESRD patients: total PTH assay (Scantibodies) on blood samples; settings: for Total PTH decrease: median values; for Total PTH: median of ninety patients, 5.5 μg intravenously every three days
Description: (§1) A clinical trial was held for ninety ESRD patients. Each patient had been receiving vitamin D suppressant therapy in accordance with the manufacturer's guidelines. Each patient was removed from the therapy for a washout period of four weeks, and this was confirmed by a rise in PTH measurements after removal of the therapeutic. PTH maxacalcitol (made by Chugai Pharmaceutical Corporation of Tokyo, Japan) suppressant therapy was started after the washout at a constant administration of 5.5 μg intravenously every three days. Blood samples were obtained from each patient after the washout (week 0), six weeks after therapy restart (week 6), and twelve weeks after therapy restart (week 12). The samples were assayed for PTH agonist levels and PTH antagonist levels using the PTH agonist assay and total PTH assay made by Scantibodies Laboratory, Inc. The samples were assayed for bone specific alkaline phosphatase using a commercially available immunoassay from Hybritech, Inc. of San Diego, Calif.
(§2) The results of the assays for the ninety patients are shown in FIG. 2 and the following table as median values: […]

[2] = tested on: PTH agonist; assay: Clinical trial in ESRD patients: PTH agonist assay (Scantibodies) on blood samples; settings: for PTH agonist decrease: median values; for PTH agonist: median of ninety patients, 5.5 μg intravenously every three days
Description: as §1, §2

[3] = tested on: PTH antagonist; assay: Clinical trial in ESRD patients: PTH antagonist level (total PTH minus PTH agonist); settings: for PTH antagonist decrease: 6 weeks versus 0 weeks; for PTH antagonist decrease / PTH antagonist increase: median values; for PTH antagonist increase: 12 weeks versus 6 weeks; for PTH antagonist: median of ninety patients, 5.5 μg intravenously every three days
Excerpt: PTH antagonist levels should be measured using an assay that either directly detects PTH antagonist (but not PTH agonist) or indirectly through a total PTH measurement that measures the sum of the PTH agonist and PTH antagonist. An indirect measurement subtracts the PTH agonist value from the total PTH value, deriving the PTH antagonist value. Thus, one should use a total PTH assay that is designed to have essentially 100% cross-reactivity with PTH antagonist and PTH agonist. For example, Scantibodies Laboratory Total Intact PTH Assay or Scantibodies Laboratory Intact PTH Assay are appropriate assays.
as §1, §2

[4] = tested on: bone specific alkaline phosphatase; assay: Clinical trial in ESRD patients: bone specific alkaline phosphatase immunoassay (Hybritech); settings: for Alkaline Phosphatase decrease: median values; for Alkaline Phosphatase: median of ninety patients, 5.5 μg intravenously every three days
Description: as §1, §2

[5] = 6 weeks versus 0 weeks, listed as PTH suppressant
[6] = 12 weeks versus 6 weeks, listed as PTH suppressant

C=C1/C(=C\C=C2/CCC[C@]3(C)[C@@H]([C@H](C)OCCC(C)(C)O)CC[C@@H]23)C[C@@H](O)C[C@@H]1O [maxacalcitol]
Total PTH decrease ([1]; 6 weeks versus 0 weeks): (41% decrease) | Total PTH decrease [1, 5]: 41% | Total PTH decrease ([1]; 12 weeks versus 6 weeks): (1% decrease) | Total PTH decrease [1, 6]: 0.8% | Total PTH ([1]; 6 weeks (0 weeks: 886)): 531 pg/mL | Total PTH ([1]; 12 weeks (0 weeks: 886)): 525 pg/mL | PTH agonist decrease ([2]; 6 weeks versus 0 weeks): (41% decrease) | PTH agonist decrease [2, 5]: 41% | PTH agonist decrease ([2]; 12 weeks versus 6 weeks): (8% decrease) | PTH agonist decrease [2, 6]: 8% | PTH agonist ([2]; 6 weeks (0 weeks: 609)): 361 pg/mL | PTH agonist ([2]; 12 weeks (0 weeks: 609)): 331 pg/mL | PTH antagonist decrease [3]: (42% decrease) | PTH antagonist decrease ([3]; listed as PTH suppressant): 42% | PTH antagonist increase [3]: (21% increase) | PTH antagonist increase ([3]; listed as PTH suppressant): 21% | PTH antagonist ([3]; 6 weeks (0 weeks: 276)): 160 pg/mL | PTH antagonist ([3]; 12 weeks (0 weeks: 276)): 194 pg/mL | Alkaline Phosphatase decrease ([4]; 6 weeks versus 0 weeks): (13% decrease) | Alkaline Phosphatase decrease ([4]; 12 weeks versus 6 weeks): (16% decrease) | Alkaline Phosphatase ([4]; 6 weeks (0 weeks: 396)): 344 U/ml | Alkaline Phosphatase ([4]; 12 weeks (0 weeks: 396)): 290 U/ml
